Data: publication PMC6720511, “Synthesis and biological evaluation of novel N-(piperazin-1-yl)alkyl-1H-dibenzo[a,c]carbazole derivatives of dehydroabietic acid as potential MEK inhibitors” (Journal of Enzyme Inhibition and Medicinal Chemistry, 2019)
Like-named read-outs stand apart in the source and are kept apart here.

Columns and labels:
SMMC-7721 = test: MTT cytotoxic assay; type: cell-based, human; settings: mean value ± SD
Method: (§1) Three human hepatocarcinoma cell lines (SMMC-7721, HepG2 and Hep3B) and normal hepatocyte cell line (QSG-7701) were maintained in Dulbecco Modified Eagle Medium (DMEM) containing 4.0 mM L-Glutamine and 4500 mg/l Glucose supplemented with 10% (v/v) foetalbovine serum (FBS) and 100 unites/mL penicillin/streptomycin at 37 °C in humidified atmosphere of 5% CO2 and 95% air.
(§2) The in vitro cytotoxic activities of the carbazole derivatives of DHA were evaluated against three human hepatocarcinoma cell lines (SMMC-7721, HepG2 and Hep3B) and a normal human hepatocyte cell line (QSG-7701) via the MTT colorimetric method. Briefly, SMMC-7721, HepG2, Hep3B and QSG-7701 cells were harvested at log phase of growth and seeded in 96-well plates (100 µL/well at a density of 2 × 10^5 cells/mL). After 24 h incubation at 37 °C and 5% CO2 to allow cell attachment, cultures were exposed to various concentrations of the isolated compounds for 48 h. Finally, MTT solution (2.5 mg/mL in PBS) was added (40 µL/well). Plates were further incubated for 4 h at 37 °C, and the formazan crystals formed were dissolved by adding 150 µL/well of DMSO. Absorption at 570 nm was measured with an ELISA plate reader. […] Doxorubicin was co-assayed as positive control.

Hep3B = test: MTT cytotoxic assay; type: cell-based, human; settings: 48 h, mean value ± SD
Method: as §1, §2

HepG2 = test: MTT cytotoxic assay; type: cell-based, human; settings: mean value ± SD
Method: as §1, §2

[1] = tested on: three human hepatocarcinoma cell lines (SMMC-7721, HepG2 and Hep3B); test: MTT cytotoxic assay, statements over the three cancer cell lines; type: cell-based; settings: for cytotoxic activity against three cancer cell lines (in words): SMMC-7721, HepG2 and Hep3B
Method: as §1, §2

[2] = tested on: normal hepatocyte cell line (QSG-7701); test: MTT cytotoxic assay on normal hepatocytes; type: cell-based, human; settings: mean value ± SD
Method: as §1, §2

[3] = at least one of SMMC-7721, HepG2, Hep3B, read-out: IC50 against at least one hepatocarcinoma cell line
[4] = over SMMC-7721, HepG2 and Hep3B, read-out: IC50 against the three cancer cell lines

Compound	IC50 (SMMC-7721; Homo sapiens, SMMC-7721, 48 h)	IC50 (Hep3B; Homo sapiens, Hep3B)	IC50 (HepG2; Homo sapiens, HepG2, 48 h)	IC50 (SMMC-7721; 48 h)	IC50 (Hep3B)	IC50 (HepG2; 48 h)	IC50 ([2]; 48 h)	other results
COC(=O)C1(C)CCCC2(C)c3ccc(C(C)C)cc3-c3c(c4ccccc4n3CCN3CCN(C)CC3)C12 (centres unmarked) [Compound 6b, 2,3,4,4a,9,13c-Hexahydro-7-isopropyl-1,4a-dimethyl-9–(2-(4-methylpiperazin-1-yl)ethyl)-1H-dibenzo[a,c]carbazole-1-carboxylic acid methyl ester]	13.2 ± 0.76 µM	6.78 ± 0.42 µM	11.7 ± 0.58 µM	–	–	–	–	IC50 ([1]; Homo sapiens, at least one of SMMC-7721, HepG2, Hep3B, read-out: IC50 against at least one hepatocarcinoma cell line): < 10 µM; IC50 ([2]; Homo sapiens, QSG7701, 48 h): 27.5 ± 1.87 µM
2,3,4,4a,9,13c-Hexahydro-7-isopropyl-1,4a-dimethyl-9–(2-(4-formylpiperazin-1-yl)butyl)-1H-dibenzo[a,c]carbazole-1-carboxylic acid methyl ester [Compound 8e]	–	–	–	32.1 ± 2.78 µM	38 ± 1.75 µM	41.2 ± 3.56 µM	> 50 µM	cytotoxic activity against three cancer cell lines (in words) [1]: moderate inhibitions
CCN1CCN(CCn2c3c(c4ccccc42)C2C(C)(C(=O)OC)CCCC2(C)c2ccc(C(C)C)cc2-3)CC1 (centres unmarked) [Compound 6c, 2,3,4,4a,9,13c-Hexahydro-7-isopropyl-1,4a-dimethyl-9–(2-(4-ethylpiperazin-1-yl)ethyl)-1H-dibenzo[a,c]carbazole-1-carboxylic acid methyl ester]	14 ± 2.1 µM	11 ± 0.65 µM	17.4 ± 1.73 µM	–	–	–	–	cytotoxic activity against three cancer cell lines (in words) [1]: moderate activity; IC50 ([2]; Homo sapiens, QSG7701, 48 h): 41.1 ± 3.69 µM
COc1cccc2c1C(=O)c1c(O)c3c(c(O)c1C2=O)C[C@@](O)(C(=O)CO)C[C@@H]3O[C@H]1C[C@H](N)[C@H](O)[C@H](C)O1 [Doxorubicin, reference compound]	1.13 ± 0.11 µM	1.02 ± 0.09 µM	2.38 ± 0.29 µM	–	–	–	–	IC50 ([2]; Homo sapiens, QSG7701, 48 h): 13.8 ± 0.53 µM
2,3,4,4a,9,13c-Hexahydro-7-isopropyl-1,4a-dimethyl-9–(3-(4-methyl piperazin-1-yl)butyl)-1H-dibenzo[a,c]carbazole-1-carboxylic acid methyl ester [Compound 8b]	–	–	–	34.9 ± 3.35 µM	18.3 ± 1.02 µM	19.6 ± 2.91 µM	> 50 µM	–
COC(=O)C1(C)CCCC2(C)c3ccc(C(C)C)cc3-c3c(c4ccccc4n3CCN3CCN(Cc4ccccc4)CC3)C12 (centres unmarked) [Compound 6h, 2,3,4,4a,9,13c-Hexahydro-7-isopropyl-1,4a-dimethyl-9–(2-(4-benzylpiperazin-1-yl)ethyl)-1H-dibenzo[a,c]carbazole-1-carboxylic acid methyl ester]	> 50 µM	> 50 µM	> 50 µM	–	–	–	–	–
COC(=O)C1(C)CCCC2(C)c3ccc(C(C)C)cc3-c3c(c4ccccc4n3CCN3CCN(c4ccccn4)CC3)C12 (centres unmarked) [Compound 6g, 2,3,4,4a,9,13c-Hexahydro-7-isopropyl-1,4a-dimethyl-9–(2-(4-(pyridine-2-yl)piperazin-1-yl)ethyl)-1H-dibenzo[a,c]carbazole-1-carboxylic acid methyl ester]	> 50 µM	> 50 µM	> 50 µM	–	–	–	–	–
2,3,4,4a,9,13c-Hexahydro-7-isopropyl-1,4a-dimethyl-9–(2-(4-phenyl piperazin-1-yl)propyl)-1H-dibenzo[a,c]carbazole-1-carboxylic acid methyl ester [Compound 7f]	–	–	–	> 50 µM	> 50 µM	> 50 µM	–	–
2,3,4,4a,9,13c-Hexahydro-7-isopropyl-1,4a-dimethyl-9–(2-(piperazin-1-yl) butyl)-1H-dibenzo[a,c]carbazole-1-carboxylic acid methyl ester [Compound 8a]	–	–	–	6.1 ± 0.47 µM	2.89 ± 0.27 µM	4.8 ± 0.32 µM	23.4 ± 2.97 µM	IC50 [1, 3]: < 10 µM; IC50 [1, 4]: 2.89 to 6.1 µM
2,3,4,4a,9,13c-Hexahydro-7-isopropyl-1,4a-dimethyl-9–(2-(4-(pyridine-2-yl) piperazin-1-yl)butyl)-1H-dibenzo[a,c]carbazole-1-carboxylic acid methyl ester [Compound 8g]	–	–	–	> 50 µM	> 50 µM	> 50 µM	–	–
2,3,4,4a,9,13c-Hexahydro-7-isopropyl-1,4a-dimethyl-9–(2-(4-formylpiperazin-1-yl)propyl)-1H-dibenzo[a,c]carbazole-1-carboxylic acid methyl ester [Compound 7e]	–	–	–	23.3 ± 2.35 µM	20 ± 1.22 µM	16.9 ± 1.58 µM	> 50 µM	cytotoxic activity against three cancer cell lines (in words) [1]: moderate inhibitions
2,3,4,4a,9,13c-Hexahydro-7-isopropyl-1,4a-dimethyl-9–(2-(4-(pyridine-2-yl) piperazin-1-yl)propyl)-1H-dibenzo[a,c]carbazole-1-carboxylic acid methyl ester [Compound 7g]	–	–	–	> 50 µM	> 50 µM	> 50 µM	–	–
COC(=O)C1(C)CCCC2(C)c3ccc(C(C)C)cc3-c3c(c4ccccc4n3CCN3CCN(c4ccccc4)CC3)C12 (centres unmarked) [Compound 6f, 2,3,4,4a,9,13c-Hexahydro-7-isopropyl-1,4a-dimethyl-9–(2-(4-phenylpiperazin-1-yl)ethyl)-1H-dibenzo[a,c]carbazole-1-carboxylic acid methyl ester]	> 50 µM	> 50 µM	> 50 µM	–	–	–	–	–
2,3,4,4a,9,13c-Hexahydro-7-isopropyl-1,4a-dimethyl-9–(2-(4-ethylpiperazin -1-yl)propyl)-1H-dibenzo[a,c]carbazole-1-carboxylic acid methyl ester [Compound 7c]	–	–	–	> 50 µM	40.7 ± 2.62 µM	> 50 µM	–	cytotoxic activity against three cancer cell lines (in words) [1]: weak or no inhibitions
COC(=O)C1(C)CCCC2(C)c3ccc(C(C)C)cc3-c3c(c4ccccc4n3CCN3CCN(C=O)CC3)C12 (centres unmarked) [Compound 6e, 2,3,4,4a,9,13c-Hexahydro-7-isopropyl-1,4a-dimethyl-9–(2-(4-formylpiperazin-1-yl)ethyl)-1H-dibenzo[a,c]carbazole-1-carboxylic acid methyl ester]	17.3 ± 1.78 µM	11.4 ± 0.53 µM	15.7 ± 1.61 µM	–	–	–	–	cytotoxic activity against three cancer cell lines (in words) [1]: moderate inhibitions; IC50 ([2]; Homo sapiens, QSG7701, 48 h): > 50 µM
2,3,4,4a,9,13c-Hexahydro-7-isopropyl-1,4a-dimethyl-9–(2-(4-ethylpiperazin -1-yl)butyl)-1H-dibenzo[a,c]carbazole-1-carboxylic acid methyl ester [Compound 8c]	–	–	–	> 50 µM	> 50 µM	> 50 µM	–	cytotoxic activity against three cancer cell lines (in words) [1]: weak or no inhibitions
2,3,4,4a,9,13c-Hexahydro-7-isopropyl-1,4a-dimethyl-9–(2-(1,4-diazepan-1-yl) propyl)-1H-dibenzo[a,c]carbazole-1-carboxylic acid methyl ester [Compound 7d]	–	–	–	10.3 ± 1.02 µM	12.8 ± 0.67 µM	8.68 ± 1.13 µM	32.8 ± 3.22 µM	IC50 [1, 3]: < 10 µM
2,3,4,4a,9,13c-Hexahydro-7-isopropyl-1,4a-dimethyl-9–(2-(4-benzylpiperazin -1-yl)butyl)-1H-dibenzo[a,c]carbazole-1-carboxylic acid methyl ester [Compound 8h]	–	–	–	> 50 µM	> 50 µM	> 50 µM	–	–
2,3,4,4a,9,13c-Hexahydro-7-isopropyl-1,4a-dimethyl-9–(2-(4-benzylpiperazin-1-yl)propyl)-1H-dibenzo[a,c]carbazole-1-carboxylic acid methyl ester [Compound 7h]	–	–	–	> 50 µM	> 50 µM	> 50 µM	–	–
2,3,4,4a,9,13c-Hexahydro-7-isopropyl-1,4a-dimethyl-9–(2-(4-phenyl piperazin-1-yl)butyl)-1H-dibenzo[a,c]carbazole-1-carboxylic acid methyl ester [Compound 8f]	–	–	–	> 50 µM	> 50 µM	> 50 µM	–	–
2,3,4,4a,9,13c-Hexahydro-7-isopropyl-1,4a-dimethyl-9–(2-(piperazin-1-yl) propyl)-1H-dibenzo[a,c]carbazole-1-carboxylic acid methyl ester [Compound 7a]	–	–	–	5.1 ± 0.18 µM	1.37 ± 0.2 µM	3.1 ± 0.45 µM	17.2 ± 1.89 µM	IC50 [1, 3]: < 10 µM; IC50 [1, 4]: 1.37 to 5.1 µM
2,3,4,4a,9,13c-Hexahydro-7-isopropyl-1,4a-dimethyl-9–(2-(1,4-diazepan-1-yl) butyl)-1H-dibenzo[a,c]carbazole-1-carboxylic acid methyl ester [Compound 8d]	–	–	–	12.8 ± 0.84 µM	14.4 ± 0.77 µM	11.5 ± 1.23 µM	43.6 ± 4.03 µM	–
